Here are results for six molecules from US20190136254A1, “ALS Inhibitor Herbicide Tolerant Mutant Plants” (BASF SE, priority 2013, published 2019).

Residue numbers refer to the chain shown, from its start. In names and notes the source's numbering stands. Where only a bound is given, the exact number is not on record here.

For series [1], the target named is mixture of two ALS proteins, one comprising the P197S and the other the W574L mutation (Arabidopsis thaliana, UniProt P17597, P197S/W574L). The series is described as follows: biochemical. The conditions noted are these: for Resistance Factor P197S & W574L (mixture): calculated mixture of two ALS proteins, relative to WT.
Sequence of mixture of two ALS proteins, one comprising the P197S and the other the W574L mutation (P17597 56-670 P197S/W574L): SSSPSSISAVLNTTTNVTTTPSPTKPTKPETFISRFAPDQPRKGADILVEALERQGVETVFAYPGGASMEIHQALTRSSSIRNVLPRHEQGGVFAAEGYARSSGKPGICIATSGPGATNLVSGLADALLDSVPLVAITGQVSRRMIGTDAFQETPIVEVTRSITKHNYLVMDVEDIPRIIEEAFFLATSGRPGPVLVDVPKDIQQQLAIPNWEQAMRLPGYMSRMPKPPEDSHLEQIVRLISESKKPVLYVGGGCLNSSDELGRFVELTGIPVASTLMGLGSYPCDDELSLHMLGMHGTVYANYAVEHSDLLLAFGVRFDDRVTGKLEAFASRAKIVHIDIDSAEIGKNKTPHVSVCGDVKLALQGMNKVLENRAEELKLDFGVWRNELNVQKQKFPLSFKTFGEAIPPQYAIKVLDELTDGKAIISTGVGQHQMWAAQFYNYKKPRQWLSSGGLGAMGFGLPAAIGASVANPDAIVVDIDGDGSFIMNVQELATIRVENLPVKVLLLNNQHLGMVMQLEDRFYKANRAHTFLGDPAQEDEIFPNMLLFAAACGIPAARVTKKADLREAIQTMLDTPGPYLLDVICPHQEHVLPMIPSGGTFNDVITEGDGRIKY
The test system of series [2] is oilseed rape homozygous for HETO132 and HETO134. The series is described as follows: Field test of visible phytotoxicity upon herbicide spraying, HETO132-HETO134. The series is classed as in vivo, Brassica napus. The conditions noted are these: g ai/ha: imazamox 40, bispyribac-sodium 50, propoxycarbazone-sodium 70, mesosulfuron-methyl 60, pyroxsulam 12.5 + cloquintocet-mexyl 37.5, each + rapeseed oil methylated 366.5, 0%=no phytotoxic effects, 100%=all plants killed. From the text:
(§1) Seeds of spring oilseed rape homozygous for HETO132 and HETO134, and seeds of spring oilseed rape homozygous for HETO133 and HETO 134 were sown in a field according to typical practical agricultural methods. Several ALS inhibitor herbicides were applied to the oilseed rape plants by using specific spray equipment for small plot applications. […] The use of all herbicides in the test lead to a clearly better tolerance of the spring oilseed rape lines homozygous for HETO132 and HETO134 as compared to a standard variety not comprising ALS alleles according to the invention.

Series [3] deals with oilseed rape homozygous for HETO133 and HETO134. The series is described as follows: Field test of visible phytotoxicity upon herbicide spraying, HETO133-HETO134. It is filed as in vivo, Brassica napus. The conditions noted are these: g ai/ha: imazamox 40, bispyribac-sodium 50, propoxycarbazone-sodium 70, mesosulfuron-methyl 60, pyroxsulam 12.5 + cloquintocet-mexyl 37.5, each + rapeseed oil methylated 366.5, 0%=no phytotoxic effects, 100%=all plants killed.
Description: as §1

The test system of series [4] is wild-type (WT) oilseed rape. The series is described as follows: Field test of visible phytotoxicity upon herbicide spraying, wild-type. The series is classed as in vivo, Brassica napus. The conditions noted are these: g ai/ha: imazamox 40, bispyribac-sodium 50, propoxycarbazone-sodium 70, mesosulfuron-methyl 60, pyroxsulam 12.5 + cloquintocet-mexyl 37.5, each + rapeseed oil methylated 366.5, 0%=no phytotoxic effects, 100%=all plants killed.
Description: as §1

In a further series the target is AHAS protein WT (Arabidopsis thaliana, UniProt P17597). The series is described as follows: biochemical. As for the experimental part:
(§2) Bacteria are grown at 37° C. in LB-medium containing 100 mg/l carbenicillin and 25 mg/l canamycin, induced with 1 mM isopropyl-β-D-thiogalactopyranoside at an OD600 of 0.6, cultivated for 16 hours at 18° C. and harvested by, e.g., centrifugation. Bacterial pellets are resuspended in 100 mM sodium phosphate buffer pH 7.0 containing 0.1 mM thiamine-pyrophosphate, 1 mM MgCl2, and 1 μM FAD at a concentration of 1 gram wet weight per 25 ml of buffer and disrupted by, e.g., sonification. The crude protein extract obtained after centrifugation is used for ALS activity measurements.
(§3) ALS protein can be extracted from leaves or tissue cultures, such as B. napus or B. juncea leaves, or B. napus or B. juncea tissue cultures as described by Ray (Plant Physiol, 1984, 75:827-831). An ALS assays can be carried out in 96-well microtiter plates using a modification of the procedure described by Ray (1984): The reaction mixture contains 20 mM potassium phosphate buffer pH 7.0, 20 mM sodium pyruvate, 0.45 mM thiamine-pyrophosphate, 0.45 mM MgCl2, 9 μM FAD. ALS enzyme and various concentrations of ALS inhibitors can be mixed in a final volume of 90 μl. Assays can be initiated by adding enzyme and the assays can be terminated after 75 min incubation at 30° C. by the addition of 40 μl 0.5 M H2SO4.

For series [5], the target named is AHAS protein comprising the P197S mutation (Arabidopsis thaliana, UniProt P17597, P197S). The series is described as follows: biochemical. The conditions noted are these: for Resistance Factor P197S: AHAS P197S relative to WT. The procedure: as §2, §3
Sequence of AHAS protein comprising the P197S mutation (P17597 56-670 P197S): as the sequence (P17597 56-670 P197S/W574L) above, with L519W counted along it
The target of series [6] is AHAS protein comprising the W574L mutation (Arabidopsis thaliana, UniProt P17597, W574L). The series is described as follows: biochemical. The conditions noted are these: for Resistance Factor W574L: AHAS W574L relative to WT. As for the experimental part: as §2, §3
Sequence of AHAS protein comprising the W574L mutation (P17597 56-670 W574L): as the sequence (P17597 56-670 P197S/W574L) above, with S142P counted along it
For series [7], the target named is AHAS protein comprising both the P197S and W574L mutation in one ALS protein (Arabidopsis thaliana, UniProt P17597, P197S/W574L). It is filed as biochemical. The conditions noted are these: both mutations in one ALS protein; for Resistance Factor P197S-W574L (in one protein): relative to WT. The procedure: as §2, §3
Sequence of AHAS protein comprising both the P197S and W574L mutation in one ALS protein (P17597 56-670 P197S/W574L): as the sequence (P17597 56-670 P197S/W574L) above
Series [8] has as its system Brassica napus hypocotyl derived callus. The series is described as follows: Selection of hypocotyl derived callus on medium containing Foramsulfuron. The series is classed as cell-based. As for the experimental part:
Five day old seedlings were used for the preparation of hypocotyl segments 7-10 mm in length. Hypocotyl segments were transferred to 14 cm Petri plates containing 75 ml of M-338 [H76] callus induction medium (25 explants/plate). M-338 [H76] medium is MS salts and vitamins (Murashige and Skoog, 1962), 20 g/l sucrose, 0.5 g/l MES, 0.5 g/l adenine sulphate, 5 mg/l silver nitrate, 0.5 mg/l 2,4-D, 0.2 mg/l kinetin and solidified with 5.5 g/l agarose (pH 5.7). Dishes were sealed and cultured at 24° C. with standard light conditions (16 h/day). After 3 weeks, calli developing at the ends of the explants were transferred to fresh M-338 [H76] plates (25 calli/plate). Calli were subcultured to fresh medium every 3 weeks (larger calli cut into two pieces).
Hypocotyl derived callus (9 weeks old) was used for the selection of herbicide resistant mutants. Small pieces of callus were plated on M-338 [H76] medium containing 25 nM of the ALS inhibitor Foramsulfuron (CAS RN 173159-57-4). […] Dishes were cultured at 24° C. with standard light conditions (16 h/day). After 3 weeks, the calli were divided into 2 pieces each and replated on M-338 [H76] medium containing 50 nM Foramsulfuron. […]

Series [9] in a line: Kinetic parameters of enzymatic activity of AHAS proteins. The series is classed as biochemical. The conditions noted are these: enzymatic activity of the AHAS protein. The procedure:
The ALS inhibitor sensitivity and kinetic parameters of AHAS proteins comprising the P197S mutation, the W574L mutation, and both the P197S and W574L mutation in one ALS protein, were determined essentially as described in WO 2013/127766. ALS inhibitor sensitivity of a mixture of two ALS proteins, one of which comprising the P197S and the other comprising the W574L mutations were calculated as described in WO 2013/127766.

Sequence of AHAS protein WT (P17597 56-670): as the sequence (P17597 56-670 P197S/W574L) above, with S142P, L519W counted along it

On to `COc1cc(OC)nc(Oc2cccc(Oc3nc(OC)cc(OC)n3)c2C(=O)O)n1` [Bispyribac-sodium, bispyribac-sodium], for which, in series [1], the IC50 (usually the concentration needed to halve the response being measured) is 794 nM and the “Resistance Factor P197S & W574L (mixture)” value is 40. Also, in [2], the “Percentage phytotoxicity 9 DAA HETO132-HETO134” value is recorded as 46.7%, the “Percentage phytotoxicity 16 DAA HETO132-HETO134” value is given as 71.7% and the “Percentage phytotoxicity 24 DAA HETO132-HETO134” value amounted to 43.3%. In series [3], the “Percentage phytotoxicity 9 DAA HETO133-HETO134” value is given as 56.7%, the “Percentage phytotoxicity 16 DAA HETO133-HETO134” value stood at 88.3% and the “Percentage phytotoxicity 24 DAA HETO133-HETO134” value came to 92.7%. Also, in series [4], the “Percentage phytotoxicity 9 DAA wild-type” value is 76.7%, the “Percentage phytotoxicity 16 DAA wild-type” value came out at 98.3% and the “Percentage phytotoxicity 24 DAA wild-type” value was 100%. The molecule further had an IC50 at AHAS protein WT of 15.8 nM. For the same molecule, in series [5], the half-inhibitory concentration (IC50) is 79.4 nM and the “Resistance Factor P197S” value came out at 4. Further, in [6], half-maximal inhibition (IC50) required 7940 nM and the “Resistance Factor W574L” value is 447. Besides, in [7], the “pI50 P197S-W574L (in one protein)” value was under 4 and the “Resistance Factor P197S-W574L (in one protein)” value (“Resistance Factor P197S-W574L” below) is over 5623.
As to `COc1cc(OC)nc(NC(=O)NS(=O)(=O)c2cc(NC=O)ccc2C(=O)N(C)C)n1` [Foramsulfuron, foramsulfuron], in [1], the IC50 is 2510 nM and the “Resistance Factor P197S & W574L (mixture)” value is reported as 398. For the same molecule, the “effect on callus growth” value in [8] (25 nM in M-338 [H76] medium, 9 weeks old hypocotyl derived callus) is given as “partially inhibitory to callus growth but not lethal”. Besides, in [8] (250 nM in M-338 [H76] medium), the “effect on WT tissues” value is on record as “clearly inhibitory to WT tissues”. In addition, the half-maximal inhibitory concentration (IC50) on AHAS protein WT was 7.94 nM. In series [5], the IC50 is 100 nM and the “Resistance Factor P197S” value came out at 12. Besides, in series [6], 50100 nM corresponded to half-maximal inhibition (IC50) and the “Resistance Factor W574L” value is reported as 5888. Besides, in series [7], the “pI50 P197S-W574L (in one protein)” value was under 4 and the “Resistance Factor P197S-W574L” value is recorded as over 11748.
For the molecule `COCc1cnc(C2=NC(C)(C(C)C)C(=O)N2)c(C(=O)O)c1` (centres unmarked) [Imazamox, imazamox], in series [1], the 50% inhibitory concentration (IC50) is 79400 nM and the “Resistance Factor P197S & W574L (mixture)” value is on record as 20. Also, in [2], the “Percentage phytotoxicity 9 DAA HETO132-HETO134” value amounted to 6.7%, the “Percentage phytotoxicity 16 DAA HETO132-HETO134” value came out at 8.7% and the “Percentage phytotoxicity 24 DAA HETO132-HETO134” value was found to be 0%. Also, in series [3], the “Percentage phytotoxicity 9 DAA HETO133-HETO134” value was 6.7%, the “Percentage phytotoxicity 16 DAA HETO133-HETO134” value came to 10% and the “Percentage phytotoxicity 24 DAA HETO133-HETO134” value amounted to 0%. Moreover, in series [4], the “Percentage phytotoxicity 9 DAA wild-type” value was determined as 73.3%, the “Percentage phytotoxicity 16 DAA wild-type” value is 98% and the “Percentage phytotoxicity 24 DAA wild-type” value was determined as 99%. Besides, the 50% inhibitory concentration (IC50) at AHAS protein WT was 3980 nM. Further, in series [5], 5010 nM corresponded to half-maximal inhibition (IC50) and the “Resistance Factor P197S” value turned out to be 1. In series [6], the IC50 is over 100000 nM and the “Resistance Factor W574L” value was over 22. Moreover, in series [7], the “pI50 P197S-W574L (in one protein)” value is on record as under 4 and the “Resistance Factor P197S-W574L” value was over 22.

B1: P197S: AHAS protein comprising the P197S mutation (protein, listed as Arabidopsis thaliana)
chain: MAAATTTTTTSSSISFSTKPSPSSSKSPLPISRFSLPFSLNPNKSSSSSRRRGIKSSSPSSISAVLNTTTNVTTTPSPTKPTKPETFISRFAPDQPRKGADILVEALERQGVETVFAYPGGASMEIHQALTRSSSIRNVLPRHEQGGVFAAEGYARSSGKPGICIATSGPGATNLVSGLADALLDSVPLVAITGQVSRRMIGTDAFQETPIVEVTRSITKHNYLVMDVEDIPRIIEEAFFLATSGRPGPVLVDVPKDIQQQLAIPNWEQAMRLPGYMSRMPKPPEDSHLEQIVRLISESKKPVLYVGGGCLNSSDELGRFVELTGIPVASTLMGLGSYPCDDELSLHMLGMHGTVYANYAVEHSDLLLAFGVRFDDRVTGKLEAFASRAKIVHIDIDSAEIGKNKTPHVSVCGDVKLALQGMNKVLENRAEELKLDFGVWRNELNVQKQKFPLSFKTFGEAIPPQYAIKVLDELTDGKAIISTGVGQHQMWAAQFYNYKKPRQWLSSGGLGAMGFGLPAAIGASVANPDAIVVDIDGDGSFIMNVQELATIRVENLPVKVLLLNNQHLGMVMQWQDRFYKANRAHTFLGDPAQEDEIFPNMLLFAAACGIPAARVTKKADLREAIQTMLDTPGPYLLDVICPHQEHVLPMIPSGGTFNDVITEGDGRIKY
Consider B1, for which, in series [9], the Km (in general, the concentration of substrate that gives half-maximal velocity) stood at 5.5 mM and the Vmax was found to be 50.0 deltaOD550/min mg protein.

B2: P197S-W574L (in one protein): AHAS protein comprising both the P197S and W574L mutation in one ALS protein (protein, listed as Arabidopsis thaliana)
chain: B1 chain with W574L
As for B2, in series [9], the Km came to 31.5 mM and the Vmax came to 87.7 deltaOD550/min mg protein.

B3: W574L: AHAS protein comprising the W574L mutation (protein, listed as Arabidopsis thaliana)
chain: B1 chain with S197P, W574L
Turning to B3, in [9], the Michaelis constant (Km) was 7 mM and the Vmax was found to be 54.4 deltaOD550/min mg protein.
